Here are results for 22 molecules from US9513294B2, “Megastokes amino-triazolyl-BODIPY compounds and applications to live neuron staining and human serum albumin FA1 drug site probing” (National University of Singapore, priority 2012, dated 2016).

Series [1] concerns mixed primary neural cell populations. Kind of series: Flow cytometry analysis and FACS sorting of mixed primary neural cells. Format: cell-based, mouse. The source says:
Unstained controls are shown in each spectrum from about 0 to about 1 G.
To further analyze this population of compound positive cells, the two populations (Bright and Dim) were sorted out cell re-culture and RNA extraction for gene analysis.
For orientation: A flow cytometer gives signals particle by particle.

Series [2] in a line: Quantum yield measurements versus Acridine Yellow in EtOH. Type of series: physicochemical. The conditions noted are these: MKCA compound library; quantum yield. Summed up:
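Emission areas integrated over 510–700 nm were compared with Acridine Yellow in ethanol (Φ=0.47), all excited at 460 nm. The comparative equation was normalized to excitation-wavelength absorbance and solvent refractive index.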

The nature of series [3]: Absorbance and fluorescence emission spectra (SpectraMax M2). Format: physicochemical. To be noted: MKCA compound library; for λmax Absorp. (nm): absorbance maximum; for λmax Emission (nm): fluorescence emission maximum. In outline:
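Spectroscopic data, including quantum yields, were recorded with a SpectraMax M2 instrument and analysed in GraphPrism.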

On to `CCCC(C)c1cn(-c2ccc3n2[B-](F)(F)[N+]2=C(NCc4ccccc4C)C=CC2=C3c2ccc(NC(=O)CCl)cc2)nn1` (stereo not shown) [MKCA101-3], for which the “flow cytometry profile of stained mixed neural cell populations” value in series [1] is “neuronal population segregating from the main population”. The “φ (%)” value in series [2] was 31.22%. In series [3], the “λmax Absorp. (nm)” value turned out to be 464 nm and the “λmax Emission (nm)” value amounted to 563 nm.
In the case of `CN(Cc1ccccc1)C1=[N+]2C(=C(c3ccc(NC(=O)CCl)cc3)c3ccc(-n4cc(CO)nn4)n3[B-]2(F)F)C=C1` [MKCA195-70], in series [2], the “φ (%)” value came to 2.58%. In series [3], the “λmax Absorp. (nm)” value was 465 nm and the “λmax Emission (nm)” value stood at 581 nm.
For `CCCC(C)c1cn(-c2ccc3n2[B-](F)(F)[N+]2=C(N4CCCC4)C=CC2=C3c2ccc(NC(=O)CCl)cc2)nn1` (stereo not shown) [MKCA215-3], in that order: 3.99%, 463 nm and 569 nm.
With `O=C(CCl)Nc1ccc(C2=C3C=CC(N4CCCC4)=[N+]3[B-](F)(F)n3c2ccc3-n2cc(C3CC3)nn2)cc1` [MKCA215-4], the “φ (%)” value in series [2] was 3.35%. For the same molecule, in series [3], the “λmax Absorp. (nm)” value is on record as 462 nm and the “λmax Emission (nm)” value came out at 570 nm.
For `O=C(CCl)Nc1ccc(C2=C3C=CC(N4CCCC4)=[N+]3[B-](F)(F)n3c2ccc3-n2cc(C3CCCC3)nn2)cc1` [MKCA215-5], in that order: 1.94%, 463 nm and 574 nm.
`O=C(CCl)Nc1ccc(C2=C3C=CC(N4CCCC4)=[N+]3[B-](F)(F)n3c2ccc3-n2cc(CC3CCCCC3)nn2)cc1` [MKCA215-8]: the “φ (%)” value in series [2] was 2.66%. Moreover, in series [3], the “λmax Absorp. (nm)” value was determined as 463 nm and the “λmax Emission (nm)” value was determined as 564 nm.
Taken in the same sequence, the figures for `CN(Cc1ccccc1)Cc1cn(-c2ccc3n2[B-](F)(F)[N+]2=C(N4CCCC4)C=CC2=C3c2ccc(NC(=O)CCl)cc2)nn1` [MKCA215-18] were 2.62%, 461 nm and 577 nm.
For `O=C(CCl)Nc1ccc(C2=C3C=CC(N4CCCC4)=[N+]3[B-](F)(F)n3c2ccc3-n2cc(CCc3ccccc3)nn2)cc1` [MKCA215-19], in that order: 4.98%, 463 nm and 573 nm.
On to `CC(C)Cc1cn(-c2ccc3n2[B-](F)(F)[N+]2=C(N4CCCC4)C=CC2=C3c2ccc(NC(=O)CCl)cc2)nn1` [MKCA215-43], for which, in series [2], the “φ (%)” value worked out at 4.04%. In addition, in series [3], the “λmax Absorp. (nm)” value stood at 461 nm and the “λmax Emission (nm)” value is listed as 570 nm.
With `CCCc1cn(-c2ccc3n2[B-](F)(F)[N+]2=C(N4CCCC4)C=CC2=C3c2ccc(NC(=O)CCl)cc2)nn1` [MKCA215-48], the “φ (%)” value in series [2] is listed as 4.60%. Besides, in series [3], the “λmax Absorp. (nm)” value amounted to 462 nm and the “λmax Emission (nm)” value amounted to 565 nm.
Taken in the same sequence, the figures for `CCCCCC(O)c1cn(-c2ccc3n2[B-](F)(F)[N+]2=C(N4CCCC4)C=CC2=C3c2ccc(NC(=O)CCl)cc2)nn1` (stereo not shown) [MKCA215-69] were 3.42%, 462 nm and 569 nm.
Regarding `O=C(CCl)Nc1ccc(C2=C3C=CC(N4CCCC4)=[N+]3[B-](F)(F)n3c2ccc3-n2cc(CO)nn2)cc1` [MKCA215-70], the “φ (%)” value in series [2] was 1.97%. In series [3], the “λmax Absorp. (nm)” value is 459 nm and the “λmax Emission (nm)” value was 568 nm.
For `CCCC(C)c1cn(-c2ccc3n2[B-](F)(F)[N+]2=C(NCc4cc(F)cc(F)c4)C=CC2=C3c2ccc(NC(=O)CCl)cc2)nn1` (stereo not shown) [MKCA412-3], in that order: 41.81%, 467 nm and 563 nm.
For the molecule `O=C(CCl)Nc1ccc(C2=C3C=CC(NCc4cc(F)cc(F)c4)=[N+]3[B-](F)(F)n3c2ccc3-n2cc(C3CC3)nn2)cc1` [MKCA412-4], the “φ (%)” value in series [2] came out at 36.25%. In series [3], the “λmax Absorp. (nm)” value came to 467 nm and the “λmax Emission (nm)” value was found to be 563 nm.
`O=C(CCl)Nc1ccc(C2=C3C=CC(NCc4cc(F)cc(F)c4)=[N+]3[B-](F)(F)n3c2ccc3-n2cc(C3CCCC3)nn2)cc1` [MKCA412-5]: the “φ (%)” value in series [2] was determined as 41.21%. Also, in series [3], the “λmax Absorp. (nm)” value worked out at 468 nm and the “λmax Emission (nm)” value is 563 nm.
Taken in the same sequence, the figures for `O=C(CCl)Nc1ccc(C2=C3C=CC(NCc4cc(F)cc(F)c4)=[N+]3[B-](F)(F)n3c2ccc3-n2cc(CC3CCCCC3)nn2)cc1` [MKCA412-8] were 36.92%, 467 nm and 564 nm.
Taken in the same sequence, the figures for `CN(Cc1ccccc1)Cc1cn(-c2ccc3n2[B-](F)(F)[N+]2=C(NCc4cc(F)cc(F)c4)C=CC2=C3c2ccc(NC(=O)CCl)cc2)nn1` [MKCA412-18] were 26.25%, 463 nm and 560 nm.
For `O=C(CCl)Nc1ccc(C2=C3C=CC(NCc4cc(F)cc(F)c4)=[N+]3[B-](F)(F)n3c2ccc3-n2cc(CCc3ccccc3)nn2)cc1` [MKCA412-19], in that order: 42.58%, 466 nm and 563 nm.
Turning to `CC(C)Cc1cn(-c2ccc3n2[B-](F)(F)[N+]2=C(NCc4cc(F)cc(F)c4)C=CC2=C3c2ccc(NC(=O)CCl)cc2)nn1` [MKCA412-43], the “φ (%)” value in series [2] came out at 37.83%. Besides, in series [3], the “λmax Absorp. (nm)” value is 468 nm and the “λmax Emission (nm)” value stood at 563 nm.
Take `CCCc1cn(-c2ccc3n2[B-](F)(F)[N+]2=C(NCc4cc(F)cc(F)c4)C=CC2=C3c2ccc(NC(=O)CCl)cc2)nn1` [MKCA412-48]: the “φ (%)” value in series [2] came out at 36.09%. Also, in series [3], the “λmax Absorp. (nm)” value is 466 nm and the “λmax Emission (nm)” value was 561 nm.
Take `CCCCCC(O)c1cn(-c2ccc3n2[B-](F)(F)[N+]2=C(NCc4cc(F)cc(F)c4)C=CC2=C3c2ccc(NC(=O)CCl)cc2)nn1` (stereo not shown) [MKCA412-69]: in series [2], the “φ (%)” value amounted to 30.05%. In series [3], the “λmax Absorp. (nm)” value was determined as 465 nm and the “λmax Emission (nm)” value came to 562 nm.
Turning to `O=C(CCl)Nc1ccc(C2=C3C=CC(NCc4cc(F)cc(F)c4)=[N+]3[B-](F)(F)n3c2ccc3-n2cc(CO)nn2)cc1` [MKCA412-70], the “φ (%)” value in series [2] stood at 6.28%. For the same molecule, in series [3], the “λmax Absorp. (nm)” value is 464 nm and the “λmax Emission (nm)” value amounted to 562 nm.
